Experimental data: patent US20240122879A1, “COMPOSITIONS AND METHODS FOR TREATING OCULAR CHEMICAL BURNS” (OHIO STATE INNOVATION FOUNDATION, priority 2022, published 2024)
“Also recorded” adds a separate entry of the source.

Experiments:
injured corneas [1] = experiment: Alkali induced corneal injury: corneal neovascularization, CD31 staining of corneal flat mount; assay type: in vivo, mice; details: disulfiram 50 mg/kg i.p. daily, FIG. 7G, 7H
Method: All animal care and usage followed NIH guidelines and were in accordance with the ARVO Statement for the Use of Animals in Ophthalmic and Vision Research. Rodent studies received IACUC approval by The Ohio State University. For all corneal wound healing models, injury was induced under anesthesia, all animals received topical antibiotics, and topical and systemic analgesics were provided for at least 72 h. To induce corneal injury, a 1.5 mm filter paper soaked in 1N NaOH was applied to the axial cornea for 30 seconds. The filter paper was then removed and the cornea rinsed with PBS for two minutes. After the cornea was thoroughly rinsed, fluorescein stain was applied to the cornea to verify corneal ulceration. For disulfiram treatment of mice, disulfiram was dissolved in sesame oil (12.5 mg/ml). Mice were injected 16 hours before injury through intraperitoneal injection (50 mg/kg); injection continued daily for the duration of the experiment. For Gr-1 antibody treatment, mice were injected 16 hours and immediately before injury through intraperitoneal injection (100 μg/mouse). Dissected eye from mice were fixed in 4% PFA for 24 to 48 hours at 4° C. […]

Caspase-3 = experiment: Western blot of Caspase-3 cleavage in isolated primary mouse neutrophils; assay type: cell-based; details: primary neutrophils from mouse bone marrow; FIG. 12
From the text: (§1) To further confirm neutrophils undergo pyrotposis, primary neutrophils were isolated and purified from mouse bone marrow. Isolated neutrophils underwent pyroptosis quickly after isolation followed by activation of apoptosis, as evidenced by cleaved caspase-3 (FIG. 11).
(§2) Bone marrow samples were obtained as previously described. Briefly, lower limbs were collected from euthanized mice. All attached soft tissue was removed to fully expose the femurs and tibias. An 18G needle was inserted into hollow of the bone and pulse flush buffer (2% FBS in PBS) used to flush marrow into a 15 ml sterile centrifuge tube. The solution was then filtered with a 70-100 μm filter. The solution was centrifuged at […], and the bone marrow cells were resuspended in red blood cell lysis buffer for 5 minutes.
(§3) Separation of neutrophils using density gradient centrifugation was performed as previously described (Swamydas, et al. J Vis Exp. 2013 (77):e50586). The bone marrow cells were resuspended in 1 ml of ice-cold sterile PBS. Using a 15 mL conical tube, 3 ml of Histopaque 1119 was first added followed by an overlay of 3 mL of Histopaque 1077. The bone marrow cell suspension was then overlaid on the Histopaque 1077. The samples were centrifuged for 30 min at 2,000 rpm at 25° C. Neutrophils were then at the interface of the Histopaque 1119 and Histopaque 1077 layers. […]

mCECs = experiment: Scratch wound assay of mCECs cultured with dissected corneas from treated mice; assay type: cell-based, mouse; details: FIG. 3A, 3B
Method: The potential function of neutrophil pyroptosis in corneal wound healing was next tested. Mouse corneas were first dissected with or without injury from WT, GsdmD^−/−, Gr-1 treated, and disulfiram treated mice, and cultured the dissected corneas with mCECs. A scratch wound was then created in the mCEC.
For disulfiram treatment of mice, disulfiram was dissolved in sesame oil (12.5 mg/ml). Mice were injected 16 hours before injury through intraperitoneal injection (50 mg/kg); injection continued daily for the duration of the experiment. For Gr-1 antibody treatment, mice were injected 16 hours and immediately before injury through intraperitoneal injection (100 μg/mouse).
To induce cellular migration, an in vitro scratch test was performed using mCECs. Cells were treated with dissected corneas or cytokines when they reached confluence, were subsequently scratched with a micropipette tip, and incubated for up to 12 hrs. Images were taken at 0, 3, 6, and 9 hours after the initial scratch. Images of wound closure were quantified by using ImageJ software.

Caspase-1 = experiment: Western blot: Caspase-1 cleavage after disulfiram treatment; assay type: in vivo, mice; details: FIG. 17
From the text: (§4) While neutrophil pyroptosis plays a detrimental role during corneal wound healing, the initial neutrophil infiltration is critical for removing dead corneal cells and debris, which is part of the healing process. Thus, complete depletion of neutrophil may not be the ideal option to promote normal corneal healing. Disulfiram is an FDA approved drug, which has been recently been identified as a pyroptosis inhibitor (Hu, et al. Nat Immunol. 2020 21(7):736-745). Thus, tested was whether application of disulfiram could be an effective means to promote corneal wound healing. […] To confirm treatment of disulfiram could inhibit post-injury pyroptosis, Western blot analysis was performed on corneal samples before and after injury.
(§5) All animal care and usage followed NIH guidelines and were in accordance with the ARVO Statement for the Use of Animals in Ophthalmic and Vision Research. Rodent studies received IACUC approval by The Ohio State University. For all corneal wound healing models, injury was induced under anesthesia, all animals received topical antibiotics, and topical and systemic analgesics were provided for at least 72 h. To induce corneal injury, a 1.5 mm filter paper soaked in 1N NaOH was applied to the axial cornea for 30 seconds. The filter paper was then removed and the cornea rinsed with PBS for two minutes. […]

GsdmD [2] = experiment: Western blot of corneal samples after alkali injury: GsdmD cleavage / pyroptosis; assay type: in vivo, mice; details: FIG. 2C
From the text: as §4, §5

GsdmD [3] = experiment: Western blot of GsdmD cleavage in isolated primary mouse neutrophils; assay type: cell-based; details: primary neutrophils from mouse bone marrow; FIG. 12
From the text: as §1, §2, §3

[4] = tested on: IL-1β, caspase 1 and GsdmD; details: discussion statement following citation of Hu et al.; cited from earlier work
injured corneas [5] = experiment: Alkali induced corneal injury: re-epithelialization / wound healing (fluorescein); assay type: in vivo, mice; details: disulfiram 50 mg/kg i.p. daily from 16 h before injury, antibodies before wounding, FIG. 7C-7F
Method: All animal care and usage followed NIH guidelines and were in accordance with the ARVO Statement for the Use of Animals in Ophthalmic and Vision Research. Rodent studies received IACUC approval by The Ohio State University. For all corneal wound healing models, injury was induced under anesthesia, all animals received topical antibiotics, and topical and systemic analgesics were provided for at least 72 h. To induce corneal injury, a 1.5 mm filter paper soaked in 1N NaOH was applied to the axial cornea for 30 seconds. The filter paper was then removed and the cornea rinsed with PBS for two minutes. After the cornea was thoroughly rinsed, fluorescein stain was applied to the cornea to verify corneal ulceration. For disulfiram treatment of mice, disulfiram was dissolved in sesame oil (12.5 mg/ml). Mice were injected 16 hours before injury through intraperitoneal injection (50 mg/kg); injection continued daily for the duration of the experiment. For Gr-1 antibody treatment, mice were injected 16 hours and immediately before injury through intraperitoneal injection (100 μg/mouse).

## CCN(CC)C(=S)SSC(=S)N(CC)CC [Disulfiram, Tetraethylthiuram disulfide]
Injured corneas [1]
  corneal neovascularization (CNV), CD31 staining: significantly reduced; also recorded: significantly reduce neovascularization
Caspase-3
  Caspase-3 cleavage in isolated neutrophils: not cleavage of Caspase-3
mCECs
  inhibitory effects of injured corneas on mCECs migration (scratch wound closure): greatly reduced
Caspase-1
  cleavage of Caspase-1: suppress cleavage
GsdmD [2]; FIG. 17 (disulfiram), 24 hours after injury (Gr-1 antibody)
  cleavage of GsdmD (GsdmD-N expression): suppress cleavage
GsdmD [2]; corneal samples after alkali injury, FIG. 17
  activation of pyroptosis after corneal injury: effectively inhibited pyroptosis
GsdmD [3]
  GsdmD cleavage in isolated neutrophils: inhibits cleavage of GsdmD; also recorded: significantly inhibit
[4]
  cleavage of caspase 1 and GsdmD: inhibit the cleavage of caspase 1 and GsdmD
  release of mature IL-1β: inhibit the release of mature IL-1β
Injured corneas [5]
  corneal wound healing / re-epithelialization: dramatically accelerated wound healing; also recorded: improved healing outcomes; also recorded: promote the re-epithelialization
